Consider seven molecules from PMC2193054 (The Journal of Experimental Medicine, 1999).

Where “and” joins values, the source holds several entries; their conditions need not be identical. Equal values may be shown once. Read-outs that look alike come from different tables or passages of the source. Marks after values point to notes of the source that are not given here.

The target in series [1] is T1, M. tuberculosis glutamine synthetase (Mycobacterium tuberculosis, UniProt P9WN39). The class given is cell-based, M. tuberculosis Erdman.
The target of series [2] is T1, M. tuberculosis glutamine synthetase. The class given is biochemical, M. tuberculosis Erdman.
For series [3], the target named is T2, E. coli glutamine synthetase (Escherichia coli, UniProt P0A9C5).
T2 sequence (P0A9C5 2-469 limits assumed): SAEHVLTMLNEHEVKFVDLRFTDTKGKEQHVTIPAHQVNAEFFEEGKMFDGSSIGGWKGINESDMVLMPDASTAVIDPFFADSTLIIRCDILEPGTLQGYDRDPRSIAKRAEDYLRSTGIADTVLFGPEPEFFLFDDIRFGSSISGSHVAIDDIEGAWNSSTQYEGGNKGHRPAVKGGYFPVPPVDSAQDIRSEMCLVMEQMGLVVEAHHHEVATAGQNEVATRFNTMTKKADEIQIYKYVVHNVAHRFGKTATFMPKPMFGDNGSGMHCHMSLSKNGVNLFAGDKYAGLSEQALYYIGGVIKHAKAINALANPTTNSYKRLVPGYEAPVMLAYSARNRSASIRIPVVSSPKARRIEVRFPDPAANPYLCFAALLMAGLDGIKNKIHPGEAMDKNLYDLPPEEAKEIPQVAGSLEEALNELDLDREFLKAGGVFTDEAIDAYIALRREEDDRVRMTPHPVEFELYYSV
The class given is biochemical, E. coli W.

The subject of series [4] is sheep brain glutamine synthetase. The class given is biochemical.
For series [5], the system named is M. tuberculosis Erdman. The class given is cell-based.
The test system of series [6] is M. tuberculosis H37Rv. The class given is cell-based.
For series [7], the system named is M. bovis. The class given is cell-based.
For series [8], the system named is M. bovis BCG. The class given is cell-based.
In series [9] the test system is M. avium. The class given is cell-based.
The subject of series [10] is M. smegmatis. The class given is cell-based.
Series [11] has as its system M. phlei. The class given is cell-based. Conditions: 3 d.
Series [12] has as its system L. pneumophila Philadelphia 1. The class given is cell-based. As to conditions: 24 h.
Series [13] deals with E. coli DH5α. The class given is cell-based. Conditions: 6 h.
Series [14] concerns M. tuberculosis superoxide dismutase. The class given is cell-based. As to conditions: 20 μM.
For series [15], the target named is T1, M. tuberculosis glutamine synthetase. The class given is cell-based, M. tuberculosis (expressed in M. smegmatis). Conditions: 200 μM.
The subject of series [16] is recombinant M. tuberculosis glutamine synthetase. The class given is cell-based, M. tuberculosis (expressed in M. smegmatis). As to conditions: 200 μM.
Series [17] has as its system M. tuberculosis Erdman. The class given is cell-based. This is another data set of the same source.
Series [18] has as its system M. avium (25291; ATCC). The class given is cell-based.
In series [19] the test system is M. tuberculosis. The class given is cell-based.
Series [20] relates to THP-1 human monocytes.
For series [21], the system named is γ-glutamylcysteine synthetase. As to conditions: in contrast to glutamine synthetase; cited from earlier work.

T1 sequence (P9WN39 2-478): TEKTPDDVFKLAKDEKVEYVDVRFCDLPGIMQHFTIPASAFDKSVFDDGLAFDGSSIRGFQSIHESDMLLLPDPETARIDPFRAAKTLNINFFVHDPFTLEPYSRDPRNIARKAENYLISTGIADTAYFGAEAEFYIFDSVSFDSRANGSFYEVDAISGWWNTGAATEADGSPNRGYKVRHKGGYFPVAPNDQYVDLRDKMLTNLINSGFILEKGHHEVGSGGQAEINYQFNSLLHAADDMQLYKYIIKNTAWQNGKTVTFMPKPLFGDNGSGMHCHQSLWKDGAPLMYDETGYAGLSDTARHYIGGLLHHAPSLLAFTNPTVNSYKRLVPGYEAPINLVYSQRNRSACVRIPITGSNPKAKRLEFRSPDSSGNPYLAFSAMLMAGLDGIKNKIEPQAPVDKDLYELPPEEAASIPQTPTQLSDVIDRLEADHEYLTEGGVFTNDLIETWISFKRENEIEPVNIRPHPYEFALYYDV

As for `NC(=O)c1cnccn1` [pyrazinamide], the “effect on intracellular or extracellular glutamine synthetase activity” value in [1] is on record as “negligible effect”.

As usually defined, the Ki is the dissociation constant of the complex between target and ligand, obtained from inhibition or displacement. For the molecule `CS(=N)(=O)CC[C@H](N)C(=O)O` (stereo partly drawn) [L-methionine-S-sulfoximine], the “remaining enzyme activity (% of initial activity)” value is < 10% and 3–10% in series [2] (2 µM); less than 10% in series [2] (20 μM); not above 0.5% in series [2] (200 μM); < 10% and 3–10% in series [3] (2 µM); less than 10% in series [3] (20 μM); not above 0.5% in [3] (200 μM). Also, the “remaining enzyme activity (% of initial activity)” value in series [4] (2 μM) is reported as approximately 40%. Further, the “inactivation at the highest dose of inhibitor” value in series [4] was “not completely inactivated”. In addition, in series [4] (read-out: Ki L-Ms), the Ki was found to be 110 µM. Further, the “effect on cell growth” value in series [5] was “blocked cell growth almost immediately”. Moreover, the growth entry in series [5] is reported as “completely inhibited”. Moreover, the “growth lag behind uninhibited cultures with L-glutamine added” value in [5] was 0.4–1.3 log units. The “reversal of growth inhibition by L-glutamine” value in series [5] was “almost complete”. Besides, the “growth lag behind untreated control cultures” value in [5] (0.2 μM) is recorded as 0.1–0.2 log units. Further, the “growth plateau below that of control cultures” value in [5] (2 μM) is approximately 2 log units. For the same molecule, the “sensitivity of growth to the inhibitor” value in [5] (0.2-200 μM) is listed as “highly sensitive”; in series [6], “highly sensitive”; in series [7], “highly sensitive”; in series [8] it was “highly sensitive”; in [9], “intermediate”; in series [10] (3 d) it was “insensitive”. Moreover, the “sensitivity of growth to the inhibitor” value in series [11], in [12] and in series [13] was “insensitive” throughout. The “growth rate of parent and recombinant M. smegmatis strain” value in [10] (200 μM) is given as “unaffected”. The “effect on the quantity of glutamine synthetase protein exported” value in series [1] is reported as “no detectable effect”. For the same molecule, the “cell-associated glutamine synthetase activity (plateau)” value in [1] (20 μM) is listed as approximately 50 mU. For the same molecule, the “decrease of cell-associated glutamine synthetase activity from the uninhibited level” value in series [1] (20 μM) came to 14%. In series [1] (20 μM), the “extracellular glutamine synthetase activity” value was approximately 4.5 mU. Moreover, in [1] (20 μM), the “reduction of extracellular glutamine synthetase activity from the uninhibited level” value is on record as 80%. The “activity or quantity of extracellular superoxide dismutase compared with untreated cultures” value in series [14] was “no reduction”. Further, in series [15], the “decrease of extracellular glutamine synthetase activity of the recombinant strain” value is on record as 89%. Further, the “decrease of cell-associated glutamine synthetase activity (sum of endogenous and recombinant enzymes)” value in [16] is recorded as 17%. Moreover, the “growth of intracellular bacteria” value in series [17] (2 μM) was “slowed”; in series [17] (200 μM) it was “strongly inhibited”; in [18] (2 μM) it was “uninhibited”; in series [18] (200 μM) it was “strongly inhibited”. Moreover, the “D,L-Alanine” value in [19] (0.2 μM) turned out to be 21.2 μg/10^10 Cells; in series [19] (2 μM) it was 17.7 μg/10^10 Cells; in [19] (20 μM) it was 17.8 μg/10^10 Cells. In addition, the Poly-L-Glutamate/glutamine in [19] (0.2 μM) stood at 18.2 μg/10^10 Cells; in series [19] (2 μM), 9.8 μg/10^10 Cells; in series [19] (20 μM), 6.1 μg/10^10 Cells. Besides, the “effect on morphology, doubling time, or viability” value in series [20] is on record as “no effect”. Besides, in [21], the “nature of the inhibition of γ-glutamylcysteine synthetase” value is reported as “reversible”.

In the case of `NNC(=O)c1ccncc1` [isoniazid], the “effect on intracellular or extracellular glutamine synthetase activity” value in [1] is given as “negligible effect”.

Regarding `CO[C@H]1/C=C/O[C@@]2(C)Oc3c(C)c(O)c4c(O)c(c(/C=N/N5CCN(C)CC5)c(O)c4c3C2=O)NC(=O)/C(C)=C\C=C\[C@H](C)[C@H](O)[C@@H](C)[C@@H](O)[C@@H](C)[C@H](OC(C)=O)[C@@H]1C` [Rifampin, rifampin], in series [1], the “effect on intracellular or extracellular glutamine synthetase activity” value was “negligible effect”. The “influence on the content of either poly-L-glutamate/glutamine or D,L-alanine” value in [19] was “little influence”. The “D,L-Alanine” value in series [19] (0.0125 μg/ml) is reported as 23.6 μg/10^10 Cells; in series [19] (0.05 μg/ml), 25.1 μg/10^10 Cells; in series [19] (0.2 μg/ml), 20.0^a μg/10^10 Cells. Also, the Poly-L-Glutamate/glutamine is reported as 54.2 μg/10^10 Cells in series [19] (0.0125 μg/ml), 41.6 μg/10^10 Cells in series [19] (0.05 μg/ml) and 40.0^a μg/10^10 Cells in series [19] (0.2 μg/ml).

`CC[C@@H](CO)NCCN[C@@H](CC)CO` [ethambutol]: the “effect on intracellular or extracellular glutamine synthetase activity” value in [1] is reported as “negligible effect”.

For `CP(=O)(O)CCC(N)C(=O)O` (racemic) [D,L-phosphinothricin], the “remaining enzyme activity (% of initial activity)” value was < 10% and 3–10% in series [2] (2 µM); not above 0.5% in series [2] (20 μM); not above 0.5% in series [2] (200 μM); < 10% and 3–10% in series [3] (2 µM); not above 0.5% in [3] (20 μM); not above 0.5% in series [3] (200 μM). For the same molecule, the entries for the “remaining enzyme activity (% of initial activity)” value in series [4] and in series [4] (2 μM) were approximately 25% and 60%, respectively. For the same molecule, the “inactivation at the highest dose of inhibitor” value in series [4] is reported as “not completely inactivated”. Further, in series [4] (read-out: Ki D,L-Ppt), the Ki is 16.4 µM. Besides, the “cell density lag behind uninhibited cultures” value in [5] (20, 200, 2,000 μM) is 0.5–1.5 log units.

With `NCC[C@H](O)C(=O)N[C@@H]1C[C@H](N)[C@@H](O[C@H]2O[C@H](CN)[C@@H](O)[C@H](O)[C@H]2O)[C@H](O)[C@H]1O[C@H]1O[C@H](CO)[C@@H](O)[C@H](N)[C@H]1O` [Amikacin, amikacin], the “influence on the content of either poly-L-glutamate/glutamine or D,L-alanine” value in [19] is recorded as “little influence”. In addition, the “D,L-Alanine” value in [19] (0.06 μg/ml) is on record as 29.1 μg/10^10 Cells; in [19] (0.25 μg/ml), 26.3 μg/10^10 Cells; in series [19] (1 μg/ml), 12.0^a μg/10^10 Cells. The Poly-L-Glutamate/glutamine in series [19] (0.06 μg/ml) is recorded as 49.9 μg/10^10 Cells; in series [19] (0.25 μg/ml), 43.2 μg/10^10 Cells; in series [19] (1 μg/ml), 26.0^a μg/10^10 Cells.
